# Assay results reported in the C3SDB collision cross section collection.
# Several values for one entry are separate records, joined by “and”; a condition that tells them apart may be missing. Equal entries are not always repeated.
# Conditions: [M+H-H2O]+; instrument: TW; calibrated with polyalanine and drug standards
row,SMILES,collision cross section (N2) [Å²]
1,O=C(N[C@H](CO)[C@H](O)c1ccc([N+](=O)[O-])cc1)C(Cl)Cl [CHLORAMPHENICOL],163.9

# Same assay, conditions: [M+H]+; instrument: TW; calibrated with polyalanine and drug standards
row,SMILES,collision cross section (N2)
1,C1CCc2nnnn2CC1 [PENTYLENETETRAZOL],124.5 Å²
2,CC(C)=CC1C(C(=O)OCc2cccc(Oc3ccccc3)c2)C1(C)C (stereo not drawn) [PHENOTHRIN],187.5 Å²
3,CCn1cc(C(=O)O)c(=O)c2cc(F)c(N3CCNCC3)cc21 [NORFLOXACIN],184.2 Å² and 170 Å²
4,NC(N)=NOCC[C@H](N)C(=O)O [CANAVANINE],133.3 Å²
5,C=C1[C@H]2CC[C@@]3(C)[C@H](c4ccoc4)OC(=O)C[C@]13O[C@H]1C[C@H](O)C(C)(C)[C@H](CC(=O)OC)[C@]12C [3-DEOXY-3beta-HYDROXYANGOLENSIC ACID METHYL ESTER],204.1 Å²
6,C[C@@H]1CC[C@@]2(NC1)O[C@H]1C[C@H]3[C@@H]4CC=C5C[C@@H](O)CC[C@]5(C)[C@H]4CC[C@]3(C)[C@H]1[C@@H]2C [SOLASODINE],207.8 Å²
7,CC1=CC2C(CC1=O)C(C)=CCC2C(C)C (stereo not drawn) [MUUROLLADIE-3-ONE],138.5 Å²
8,O=c1ccc2ccccc2o1 [COUMARIN],122.2 Å²
9,C[C@]12C=CC(=O)C=C1CC[C@@H]1[C@@H]2C(=O)C[C@@]2(C)[C@H]1CC[C@]2(O)C(=O)CO [PREDNISONE],181.8 Å²
10,"S=c1ccss1 [3H-1,2-DITHIOLE-3-THIONE]",120.4 Å²
11,CC(=O)Oc1ccc(/C=C/c2cc(OC(C)=O)cc(OC(C)=O)c2)cc1 [TRIACETYLRESVERATROL],171.1 Å²
12,O=c1c(O)c(-c2ccc(O)c(O)c2)oc2c(O[C@@H]3O[C@H](CO)[C@@H](O)[C@H](O)[C@H]3O)c(O)cc(O)c12 [GOSSYPIN],199.6 Å²
13,Cn1cc[nH]c1=S [METHIMAZOLE],117.2 Å² and 117.1 Å²
14,CC(C)NCC(O)c1ccc(O)c(O)c1 (stereo not drawn) [ISOPROTERENOL],149.4 Å²
15,CN1CCN(CC/C=C2/c3ccccc3Sc3ccc(S(=O)(=O)N(C)C)cc32)CC1 [THIOTHIXENE],201.9 Å²
16,CC1=C(CCC(=O)O)c2cc3nc(cc4[nH]c(cc5[nH]c(cc1n2)c(C)c5C(C)O)c(C)c4C(C)O)C(C)=C3CCC(=O)O (stereo not drawn) [HAEMATOPORPHYRIN],248.4 Å²
17,C=C1CCC2C(CC2(C)C)C(=O)CCC1O (stereo not drawn) [ISOKOBUSONE],146 Å²
18,CN1CCc2cc3c(cc2[C@H]1[C@@H]1OC(=O)c2c1ccc1c2OCO1)OCO3 [BICUCULLINE (+)],180 Å²
19,CCC(C)C(=O)O[C@@H]1C[C@@]2(C)[C@H](c3ccoc3)OC(=O)CC23OC2(C)O[C@]14[C@]1(C)[C@@H](CC(=O)OC)C5(C)CC1(O)[C@](O)(C5OC(=O)C1(C)OC1C)[C@@H](OC(C)=O)[C@]34O2 (stereo partly drawn) [UTILIN],252.5 Å²
20,C#C[C@]1(O)CC[C@H]2[C@@H]3CCC4=CC(=O)CC[C@@H]4[C@H]3CC[C@@]21CC [NORGESTREL],178.6 Å²
21,CCC(C(N)=O)c1ccccc1 (stereo not drawn) [FENBUTYRAMIDE],135.8 Å²

row,SMILES,collision cross section (N2)
1,O=c1c(O)c(-c2ccc(O)c(O)c2)oc2c(O)c(O)cc(O)c12 [GOSSYPETIN],165.9 Å²
2,CN(C(=O)CN(CCO)CC(=O)N(C)C(C)(C)Cc1ccccc1)C(C)(C)Cc1ccccc1 [OXETHAZAINE],213.7 Å²
3,COc1ccc(/C=C/c2cc(O)cc(O)c2)cc1 [RESVERATROL 4'-METHYL ETHER],157.3 Å²
4,C=CC1=C(C(=O)O)N2C(=O)[C@@H](NC(=O)/C(=N\O)c3csc(N)n3)[C@H]2SC1 [CEFDINIR],190.5 Å²
5,CC1(C)O[C@@H]2C[C@H]3[C@@H]4CCC5=CC(=O)C=C[C@]5(C)[C@H]4[C@@H](O)C[C@]3(C)[C@]2(C(=O)CO)O1 [DESONIDE],198.5 Å²
6,Cc1ncc(CSSCc2cnc(C)c(O)c2CO)c(CO)c1O [PYRITINOL],173.4 Å²
7,Cc1ccc(S(=O)(=O)NC(=O)NN2CCCCCC2)cc1 [TOLAZAMIDE],173.3 Å²
8,COc1cc2c(cc1-c1cc3cc4ccoc4cc3oc1=O)OCO2 [PACHYRRHIZIN],170.7 Å²
9,CC(=O)OCC(=O)[C@@]1(O)CC[C@H]2[C@@H]3CCC4=CC(=O)C=C[C@]4(C)[C@H]3[C@@H](O)C[C@@]21C [PREDNISOLONE ACETATE],194 Å²
10,COP(=O)(OC)OC=C(Cl)Cl [DICHLORVOS],138.7 Å²
11,CC1(C)CC23C(=O)CCC(O)C2(C)CCC13 (stereo not drawn) [3-NOR-3-OXOPANASINSAN-6-OL],146.1 Å²
12,O=C(Oc1ccccc1C(=O)O)c1ccccc1O [SALSALATE],151.3 Å²
13,CN(C)Cc1c[nH]c2ccccc12 [GRAMINE],134.9 Å²
14,c1ccc(-c2ccc(C(c3ccccc3)n3ccnc3)cc2)cc1 (stereo not drawn) [BIFONAZOLE],184.8 Å²
15,OC1(c2ccc(Cl)c(C(F)(F)F)c2)CCN(CCCC(c2ccc(F)cc2)c2ccc(F)cc2)CC1 [PENFLURIDOL],219.1 Å²
16,C[C@]12CC[C@H]3[C@@H](CC[C@]4(O)C[C@@H](O)CC[C@]34C=O)[C@@]1(O)CC[C@@H]2C1=CC(=O)OC1 [STROPHANTHIDIN],196.7 Å²
17,CCn1nc(C(=O)O)c(=O)c2cc3c(cc21)OCO3 [CINOXACIN],148.5 Å²
18,CN1CCN(C2=c3ccccc3=Nc3ccc(Cl)cc3N2)CC1 [CLOZAPINE],177.5 Å²
19,"O=C(/C=C/c1ccc(O)cc1)c1ccccc1O [2',4-DIHYDROXYCHALCONE]",153 Å²
20,NC1=NCCN1CC(=O)O [CYCLOCREATINE],124.3 Å²
21,C[C@]12CCC(=O)C=C1CC[C@@H]1[C@@H]2[C@@H](O)C[C@@]2(C)[C@H]1CC[C@]2(O)C(=O)CO [HYDROCORTISONE],185.1 Å²

# Next, values leading:
row,collision cross section (N2),SMILES
1,219.8 Å²,CCN(CC)CCOc1ccc2c(c1)C(=O)c1cc(OCCN(CC)CC)ccc1-2 [TILORONE]
2,222.9 Å²,COc1cccc2c1C(=O)c1c(O)c3c(c(O)c1C2=O)C[C@@](O)(C(C)=O)C[C@@H]3O[C@H]1C[C@H](N)[C@H](O)[C@H](C)O1 [DAUNORUBICIN]
3,177.1 Å²,"COc1cc(O)c(C(=O)/C=C/c2ccc(OC)c(O)c2)c(OC)c1 [2',3-DIHYDROXY-4,4',6'-TRIMETHOXYCHALCONE]"
4,157.4 Å²,COc1ccc(CC(=O)c2ccc(O)cc2O)cc1 [ONONETIN]
5,150.8 Å²,Nc1ccc(S(=O)(=O)Nc2nccs2)cc1 [SULFATHIAZOLE]
6,183.4 Å²,COc1ccnc(CS(=O)c2nc3ccc(OC(F)F)cc3[nH]2)c1OC (stereo not drawn) [PANTOPRAZOLE]
7,181.2 Å²,COc1ccc(C(=O)CC(=O)c2ccc(C(C)(C)C)cc2)cc1 [AVOBENZONE]
8,155.4 Å²,Nc1nc(N)c2nc(-c3ccccc3)c(N)nc2n1 [TRIAMTERENE]
9,180.8 Å²,COc1cc(O)c2c(=O)c(OC)c(-c3ccc(OC)c(OC)c3)oc2c1 [RETUSIN]
10,160.4 Å²,"CCOc1ccc(C(=O)c2ccc(O)c(O)c2O)cc1 [2,3,4-TRIHYDROXY-4'-ETHOXYBENZOPHENONE]"
11,141.1 Å²,NC(Cc1ccc(F)cc1)C(=O)O (stereo not drawn) [p-FLUOROPHENYLALANINE]
12,171.2 Å²,"COc1ccc2c(c1)OCC(Cc1ccc(O)c(OC)c1)C2=O (stereo not drawn) [DEOXYSAPPANONE B 7,3'-DIMETHYL ETHER]"
13,173.6 Å²,"COc1cc(OC)c2c(=O)c(-c3ccccc3)c(C)oc2c1OC [2-METHYL-5,7,8-TRIMETHOXYISOFLAVONE]"
14,159 Å²,COc1ccc2c(c1)OCc1c-2oc2cc(OC)ccc12 [DEHYDROVARIABILIN]
15,180.7 Å²,Clc1ccc(C(Cn2ccnc2)OCc2ccsc2Cl)c(Cl)c1 (stereo not drawn) [TIOCONAZOLE]
16,130.6 Å²,"COc1cc(OC)cc(OC)c1 [1,3,5-TRIMETHOXYBENZENE]"
17,153.8 Å²,O=C(Oc1cccc2cccnc12)c1ccccc1 [BENZOXIQUINE]
18,152.9 Å²,"COc1ccc(C(=O)c2ccc(O)cc2)c(O)c1O [2,3,4'-TRIHYDROXY-4-METHOXYBENZOPHENONE]"
19,169.8 Å²,CN1C(C(=O)Nc2ccccn2)=C(O)c2sccc2S1(=O)=O [TENOXICAM]
20,181.8 Å²,O[C@@H](c1cc(C(F)(F)F)nc2c(C(F)(F)F)cccc12)[C@H]1CCCCN1 [MEFLOQUINE]

# Same assay, conditions: [M+Na]+; instrument: TW; calibrated with polyalanine and drug standards
row,SMILES,collision cross section (N2) [Å²]
1,C=C(C)[C@@H]1[C@H]2OC(=O)[C@@H]1[C@]1(O)C[C@H]3O[C@]34C(=O)O[C@H]2[C@]14C [PICROTOXININ],168.7
2,C=CC[C@@H]1/C=C(\C)C[C@H](C)C[C@H](OC)[C@H]2O[C@@](O)(C(=O)C(=O)N3CCCC[C@H]3C(=O)O[C@H](/C(C)=C/[C@@H]3CC[C@@H](O)[C@H](OC)C3)[C@H](C)[C@@H](O)CC1=O)[C@H](C)C[C@@H]2OC [TACROLIMUS],267
3,C#CCCCCCCCCCCCC(O)CC(O)COC(C)=O (stereo not drawn) [AVOCADYNE ACETATE],184
4,CC(=O)Oc1cccc(C(=O)O)c1OC(C)=O [DIPYROCETYL],150
5,CCCCCCCCCCCCCCCCCCOCC(O)CO (stereo not drawn) [BATYL ALCOHOL],202.8
